Patent publication US8703215B2, “Agents from Ficus hispida for the amelioration of metabolic syndrome and related diseases” (Laila Nutraceuticals, priority 2009, dated 2014)

How the values were obtained:
human cancer cells = conditions: small panel of human cancer cells; cited from earlier work
[1] = Body weight gain in high fat diet induced obesity model of Sprague-Dawley rats; format: in vivo; conditions: 7 mg/kg oral daily, 8 weeks
Text: (§1) Induction: Selected healthy Sprague-Dawley rats were randomly assigned to control or various treatment groups (n=7). All the animals allocated to the obesity study were made experimentally obese through dietary intervention during the entire eight weeks induction period by feeding high fat diet ad libitum containing Bengal gram 32 g, Wheat floor 15 g, Yeast 1 g, Butter 2 g, Ground nut oil 8 g, Casein 5 g, Vanaspathi 20 g, Vitamin mix 05 g, Milk powder 12 g and Mineral Salt mixture 4.5 g per 100 g of high fat diet.
Treatment: Following 8 weeks of induction phase, the animals were treated orally (using oral feeding gavage) with either of the allocated test substances or vehicle daily for 8 weeks. […]
Body weights: Body weight of individual animal was recorded weekly during the entire duration of the study. Mean body weights for the treatment groups and control group were determined. The body weight gain was calculated at the end of 1st week, 4th week and 8th week after initiation of treatment in comparison to initial body weights. The percentage reduction in weight gain in the treatment groups was then calculated by comparing the weight gain in each treatment with that of control group. […]

adiponectin = assay: Serum adiponectin in high fat diet induced obese rats (ELISA); format: in vivo, Sprague-Dawley rats; conditions: 7 mg/kg daily, 8 weeks
Text: as §1
(§2) Treatment: Following 8 weeks of induction phase, the animals were treated orally (using oral feeding gavage) with either of the allocated test substances or vehicle daily for 8 weeks. The animals of treatment groups were supplemented with 100 mg/kg body weight of LI/PD/044B/03 or 250 mg/kg body weight of LI/PD/044B/03 or 7 mg/kg body weight of sibutramine in 10 mL of 0.5% CMC in water for further 8 weeks. The control group of animals received only the vehicle (10 mL of 0.5% CMC in water) during this period. During the treatment phase, all animals were provided with the standard rodent diet till the end of the study.
Estimation of Biomarker Adiponectin: The serum adiponectin concentration for the control and treatment groups of animals were assessed using double antibody based sandwich rat adiponectin ELISA kit. […]

[2] = Serum LDL in high fat diet induced obese rats; format: in vivo, Sprague-Dawley rats; conditions: 7 mg/kg, 8 weeks
Text: as §1, §2
Serum LDL concentration: The serum LDL levels in animals supplemented with different Treatments and control were estimated on Human Biochemistry Analyzer (German) and the results are summarized in FIG. 7B.

Row | Compound | cytotoxic activity (human cancer cells) | reduction in body weight gain vs control group [1] [%] | improvement in serum adiponectin concentration vs baseline (adiponectin) [%] | serum LDL concentrations [2]
1 | COc1ccc2c3c(c4cc(OC)c(OC)cc4c2c1)CN1CCCC1C3O (centres unmarked) [O-Methyltylophorinidine] | potent cytotoxic activity |  |  | 
2 | CC(C)CC(N(C)C)C1(c2ccc(Cl)cc2)CCC1 (centres unmarked) [sibutramine] |  | 40 | 6.3 | significant reduction
3 | ficustriol | inactive |  |  | 
